Test results: PubChem BioAssay AID743146 (Broad Institute, 2013)
Calls of active or inactive are those of the source.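 The calls were made as follows: active = fitted half-maximal potency for cell killing at or below the highest valid dose tested for that sample; inconclusive = flat curve with 30 to 70% viability loss, or unreliable fit; inactive = the rest.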

Experiments:
[1] = viability loss in A549 lung cancer cells – cell-based, CellTiter-Glo luminescence, dry powder, set 3, cytotoxicity control, dose response (AID 743146); settings: A549 viability, CellTiter-Glo ATP luminescence, 72 h; at 26 µM (top of the series)
[2] = tested on: A549 viability, CellTiter-Glo ATP luminescence, 72 h; test: as above

Row | SMILES | activity change, negative = cytotoxicity [1] | AC50 [2] [µM]
1 | O=C(CNC(=O)c1ccc(C(F)(F)F)cc1)N[C@@H]1CCCc2ccccc21 | 11% (inactive) | –
2 | C[C@@H](NC(=O)CCNC(=O)c1ccc(Cl)cc1)c1ccccc1 | -3.03% (inactive) | –
3 | CC(NC(=O)C1CCCN(C(=O)c2ccc(Cl)cc2)C1)c1ccccc1 (stereo not drawn) | 5.97% (inactive) | –
4 | CN(C(=O)CCNC(=O)c1ccc(F)cc1F)C1CCCc2ccccc21 (stereo not drawn) | 8.93% (inactive) | –
5 | Cc1cccc(C(=O)NCCC(=O)NC2CCCc3ccccc32)c1 (stereo not drawn) | 9.52% (inactive) | –
6 | O=C(CCCNC(=O)c1ccc(Cl)cc1)N[C@@H]1CCCc2ccccc21 | -5.3% (inactive) | –
7 | O=C(CCCNC(=O)c1ccc(OC(F)(F)F)cc1)N[C@@H]1CCCc2ccccc21 | 4.74% (inactive) | –
8 | CC(CC(=O)NC1CCCc2ccccc21)NC(=O)c1ccccc1 (stereo not drawn) | 0.372% (inactive) | –
9 | CC(C)(C)OC(=O)NCCC(=O)N[C@H]1CCCc2ccccc21 | -0.649% (inactive) | –
10 | CC(c1ccccc1)N(C)C(=O)CCNC(=O)c1ccc(Cl)cc1 (stereo not drawn) | 14% (inactive) | –
11 | O=C(CCn1cnc2ccccc2c1=O)NC1CCCc2ccccc21 (stereo not drawn) | -2.5% (inactive) | –
12 | O=C(CCCNC(=O)c1ccc(Cl)c(Cl)c1)N[C@@H]1CCCc2ccccc21 | -2.59% (inactive) | –
13 | O=C(NC1CCOc2ccccc21)C1CCCN(C(=O)c2ccc(Cl)cc2)C1 (stereo not drawn) | 11.1% (inactive) | –
14 | NCCC(=O)N[C@@H]1CCCc2ccccc21 | 11.5% (inactive) | –
15 | O=C(CNC(=O)c1ccc(Cl)c(Cl)c1)N[C@@H]1CCCc2ccccc21 | -1.02% (inactive) | –
16 | O=C(CCNC(=O)c1ccc(Cl)cc1)N[C@@H]1CCc2ccccc21 | 0.571% (inactive) | –
17 | O=C(CCCNC(=O)c1ccc(C(F)(F)F)cc1)N[C@@H]1CCCc2ccccc21 | -7.77% (inactive) | –

Row | SMILES | activity change, negative = cytotoxicity [1] | AC50 [2] [µM]
18 | O=C(CNC(=O)c1ccc(Cl)cc1)N[C@@H]1CCCc2ccccc21 | -3.21% (inactive) | –
19 | O=C(CCNC(=O)c1ccccc1Cl)NC1CCCc2ccccc21 (stereo not drawn) | -2% (inactive) | –
20 | O=C(CCNC(=O)c1ccc(Cl)cc1)NC1CCCCC1 | 8.46% (inactive) | –
21 | COc1ccccc1C(C)NC(=O)CCNC(=O)c1ccc(Cl)cc1 (stereo not drawn) | 10% (inactive) | –
22 | O=C(Cc1ccc(Cl)cc1)NCCC(=O)N[C@@H]1CCCc2ccccc21 | -2.28% (inactive) | –
23 | CC(C)(C)OC(=O)NCCC(=O)N[C@@H]1CCCc2ccccc21 | 6.05% (inactive) | –
24 | CC(NC(=O)CCNC(=O)c1ccc(Cl)cc1)c1ccc(F)cc1 (stereo not drawn) | 1.56% (inactive) | –
25 | O=C(CCNC(=O)c1ccc(Cl)cc1)NC1CCCc2ccccc21 (stereo not drawn) | – | 26
26 | CC(=O)NCCC(=O)N[C@@H]1CCCc2ccccc21 | 4.17% (inactive) | –
27 | COc1ccccc1C(=O)NCCC(=O)NC1CCCc2ccccc21 (stereo not drawn) | 5.71% (inactive) | –
28 | O=C(CNC(=O)c1ccc(OC(F)(F)F)cc1)N[C@@H]1CCCc2ccccc21 | 8.39% (inactive) | –
29 | CC(NC(=O)CCNC(=O)c1ccc(Cl)cc1)c1ccc2c(c1)OCO2 (stereo not drawn) | 7.31% (inactive) | –
30 | O=C(CCNC(=O)c1ccccc1)N[C@@H]1CCCc2ccccc21 | -10.3% (inactive) | –
31 | O=C(CCNC(=O)c1ccc(F)cc1)N[C@@H]1CCCc2ccccc21 | -10.3% (inactive) | –
32 | CC(CC(=O)N(C)C1CCCc2ccccc21)NC(=O)c1ccccc1 (stereo not drawn) | -7.34% (inactive) | –
33 | O=C(NC1CCc2ccccc21)C1CCCN(C(=O)c2ccc(Cl)cc2)C1 (stereo not drawn) | -1.86% (inactive) | –
